This note sets out measurements from PubChem BioAssay AID328 (DTP/NCI, 2004).

Toxic doses and inconclusive results are not listed.

The test system of this test is BDF1 mice, P388 leukemia ip, median survival T/C. The test is described as follows: NCI In Vivo Anticancer Drug Screen. Data for tumor model P388 Leukemia (intraperitoneal) in B6D2F1 (BDF1) mice. Conditions: endpoint: median survival time, higher = longer survival. The procedure, abridged:
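Reported as T/C, where T is the survival measurement in dosed animals and C the same measurement in vehicle controls.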

The mark [1] stands for this setting: dose: 100.0 mg/kg/injection, schedule: Q04DX003 (ip), vehicle: saline with Tween-80.
Setting [2] is: dose: 200.0 mg/kg/injection, schedule: Q04DX003 (ip), vehicle: saline with Tween-80.
Setting [3] is: dose: 400.0 mg/kg/injection, schedule: Q04DX003 (ip), vehicle: saline with Tween-80.
[4] abbreviates: dose: 100.0 mg/kg/injection, schedule: Q01DX009 (ip), vehicle: saline.
The mark [5] stands for this setting: dose: 200.0 mg/kg/injection, schedule: Q01DX009 (ip), vehicle: saline.
Setting [6] is: dose: 400.0 mg/kg/injection, schedule: Q01DX009 (ip), vehicle: saline.

Consider `[Cl][Pd][Cl].[NH-]CC[NH-]`, for which the T/C is 104 % of control (dose: 6.0 mg/kg/injection, schedule: Q01DX009 (ip), vehicle: saline with Tween-80); 104 % of control (dose: 12.0 mg/kg/injection, schedule: Q01DX009 (ip), vehicle: saline with Tween-80); 100 % of control (dose: 25.0 mg/kg/injection, schedule: Q01DX009 (ip), vehicle: saline with Tween-80); 118 % of control (dose: 100.0 mg/kg/injection, schedule: Q01DX009 (ip), vehicle: saline with Tween-80); 100 % of control under setting [1]; 118 % of control under setting [2]. The T/C under setting [3] is 113 % of control.

Take `CCCn1cnc2c(=S)nc(N)[nH]c21`: the T/C is 100 % of control (dose: 6.25 mg/kg/injection, schedule: Q01DX009 (ip), vehicle: Klucel (hydroxypropylcellulose) (HPC)); 86 % of control (dose: 12.5 mg/kg/injection, schedule: Q01DX009 (ip), vehicle: Klucel (hydroxypropylcellulose) (HPC)); 86 % of control (dose: 25.0 mg/kg/injection, schedule: Q01DX009 (ip), vehicle: Klucel (hydroxypropylcellulose) (HPC)); 110 % of control (dose: 29.0 mg/kg/injection, schedule: Q04DX003 (ip), vehicle: Klucel (hydroxypropylcellulose) (HPC)); 115 % of control (dose: 45.0 mg/kg/injection, schedule: Q04DX003 (ip), vehicle: Klucel (hydroxypropylcellulose) (HPC)); 105 % of control (dose: 50.0 mg/kg/injection, schedule: Q01DX009 (ip), vehicle: Klucel (hydroxypropylcellulose) (HPC)). For the same molecule, the T/C by setting is: (dose: 150.0 mg/kg/injection, schedule: Q04DX003 (ip), vehicle: Klucel (hydroxypropylcellulose) (HPC)) 150 % of control; (dose: 200.0 mg/kg/injection, schedule: Q04DX003 (ip), vehicle: Klucel (hydroxypropylcellulose) (HPC)) 118 % of control.

As to `CC(Br)C(=O)NC(Cc1ccccc1)C(=O)O` (configuration not stated), the T/C under setting [4] is 95 % of control; the T/C (dose: 100.0 mg/kg/injection, schedule: Q04DX003 (ip), vehicle: alcohol) is 100 % of control; the T/C under setting [1] is 118 % of control; the T/C under setting [5] is 100 % of control; the T/C (dose: 200.0 mg/kg/injection, schedule: Q04DX003 (ip), vehicle: alcohol) was 104 % of control; the T/C under setting [2] was 100 % of control. Moreover, the T/C was 104 % of control under setting [6]; 109 % of control (dose: 400.0 mg/kg/injection, schedule: Q04DX003 (ip), vehicle: alcohol); 109 % of control under setting [3].

As to `CCCCC(=O)C1=C(O)C(Nc2ccccc2)=CC(=O)C1=Nc1ccccc1`, the T/C runs as follows: under setting [1], 98 % of control; under setting [2], 103 % of control; under setting [3], 100 % of control.

With `COc1ccccc1NC(=O)O/N=C/c1ccccn1`, the T/C reads like this: (dose: 100.0 mg/kg/injection, schedule: Q01DX001 (ip), vehicle: other) 100 % of control; (dose: 200.0 mg/kg/injection, schedule: Q01DX001 (ip), vehicle: other) 95 % of control; (dose: 400.0 mg/kg/injection, schedule: Q01DX001 (ip), vehicle: other) 95 % of control.

`CC1CCCC(c2ccccc2)C1` (configuration not stated): the T/C by setting is: (dose: 50.0 mg/kg/injection, schedule: Q01DX001 (ip), vehicle: saline with Tween-80) 109 % of control; (dose: 100.0 mg/kg/injection, schedule: Q01DX001 (ip), vehicle: saline with Tween-80) 109 % of control; (dose: 200.0 mg/kg/injection, schedule: Q01DX001 (ip), vehicle: saline with Tween-80) 109 % of control.

In the case of `C[n+]1ccc(/C=C/c2ccc(Cl)c(Cl)c2)cc1`, the T/C is, setting by setting: (dose: 1.5 mg/kg/injection, schedule: Q01DX009 (ip), vehicle: Klucel (hydroxypropylcellulose) (HPC)) 95 % of control; (dose: 3.0 mg/kg/injection, schedule: Q01DX009 (ip), vehicle: Klucel (hydroxypropylcellulose) (HPC)) 109 % of control; (dose: 3.0 mg/kg/injection, schedule: Q04DX003 (ip), vehicle: Klucel (hydroxypropylcellulose) (HPC)) 100 % of control; (dose: 6.0 mg/kg/injection, schedule: Q04DX003 (ip), vehicle: Klucel (hydroxypropylcellulose) (HPC)) 100 % of control.

Turning to `Cc1cccc(CCl)c1`, the T/C reads like this: (dose: 100.0 mg/kg/injection, schedule: Q04DX003 (ip), vehicle: saline sonified) 104 % of control; (dose: 200.0 mg/kg/injection, schedule: Q04DX003 (ip), vehicle: saline sonified) 109 % of control; (dose: 400.0 mg/kg/injection, schedule: Q04DX003 (ip), vehicle: saline sonified) 100 % of control.

As for `c1ccc2c(NCCCCCCCCNc3c4ccccc4nc4ccccc34)c3ccccc3nc2c1`, the T/C is 112 % of control (dose: 2.5 mg/kg/injection, schedule: Q01DX009 (ip), vehicle: Klucel (hydroxypropylcellulose) (HPC)) and 100 % of control (dose: 20.0 mg/kg/injection, schedule: Q01DX009 (ip), vehicle: Klucel (hydroxypropylcellulose) (HPC)).

Regarding `O=C(O)C1CC(c2ccccc2)OC1=O` (configuration not stated), the T/C by setting is: (dose: 100.0 mg/kg/injection, schedule: Q01DX009 (ip), vehicle: gum acacia) 92 % of control; (dose: 100.0 mg/kg/injection, schedule: Q04DX003 (ip), vehicle: gum acacia) 100 % of control; (dose: 200.0 mg/kg/injection, schedule: Q01DX009 (ip), vehicle: gum acacia) 92 % of control; (dose: 200.0 mg/kg/injection, schedule: Q04DX003 (ip), vehicle: gum acacia) 104 % of control; (dose: 400.0 mg/kg/injection, schedule: Q04DX003 (ip), vehicle: gum acacia) 108 % of control.

With `NCC1OC(OC2C(CO)OC(OC3C(O)C(N)CC(N)C3OC3OC(CO)C(O)C(O)C3N)C2O)C(N)C(O)C1O` (configuration not stated), the T/C was 104 % of control under setting [4], 106 % of control under setting [5] and 97 % of control under setting [6].

`CC([NH-])=O.CC([NH-])=O.[Pt+2]`: the T/C by setting is: (dose: 25.0 mg/kg/injection, schedule: Q01DX009 (ip), vehicle: water) 96 % of control; (dose: 50.0 mg/kg/injection, schedule: Q01DX009 (ip), vehicle: water) 104 % of control; (dose: 100.0 mg/kg/injection, schedule: Q01DX009 (ip), vehicle: water) 102 % of control; (dose: 200.0 mg/kg/injection, schedule: Q01DX009 (ip), vehicle: water) 107 % of control; (dose: 300.0 mg/kg/injection, schedule: Q01DX009 (ip), vehicle: water) 112 % of control.

Take `NC(Cc1c[nH]c2ccc(N(CCCl)CCCl)cc12)C(=O)O` (configuration not stated): the T/C is 218 % of control (dose: 0.5 mg/kg/injection, schedule: Q01DX010 (ip), vehicle: saline) and 290 % of control (dose: 1.0 mg/kg/injection, schedule: Q01DX010 (ip), vehicle: saline).
